From patent US20080069896A1, “Antitumor Composition” (Kabushiki Kaisha Sangi, priority 2004, published 2008)

Key:
Type in all cases: cell-based
YES4 = test: MTT assay, human cancer cells YES4; conditions: for IC50 of human cancer cells by MTT assay: YES4, esophageal cancer, HAP agents particle diameter 0.1 μm or less; for Platinum content calculated from IC50 of human cancer cells by MTT assay: YES4, IC50 converted to platinum concentration
Procedure: (§1) Effect of platinum tetrachloride/hydroxyapatite (PtCl4/HAP) and hexachloroplatinate/hydroxyapatite (H2PtCl6/HAP) against human cancer cells (MTT assay)
(§2) According to “in vitro toxicity test using MTT”, which is an ordinary test method, MTT assay was performed for PtCl4/HAP (particle diameter 0.1 μm or less), and H2PtCl6/HAP (particle diameter 0.1 μm or less) by using 19 types of human cancer cells. PtCl4/HAP and H2PtCl6/HAP were used by adjusting the final dispersion concentration to 1.0% in a dispersion liquid each containing 10% platinum as a theoretical value. For comparison, MTT assay was performed for PtCl4 and CDDP. PtCl4 was dissolved at an adequate dose, and then used after serial dilution with PBS (−). For CDDP, injection liquid from Malco was used.

YES2 = test: MTT assay, human cancer cells YES2; conditions: for IC50 of human cancer cells by MTT assay: YES2, esophageal cancer, HAP agents particle diameter 0.1 μm or less; for Platinum content calculated from IC50 of human cancer cells by MTT assay: YES2, IC50 converted to platinum concentration
Procedure: as §1, §2

SiHa = test: MTT assay, human cancer cells SiHa; conditions: for Platinum content calculated from IC50 of human cancer cells by MTT assay: IC50 converted to platinum concentration; for IC50 of human cancer cells by MTT assay: cervical cancer, HAP agents particle diameter 0.1 μm or less
Procedure: as §1, §2

[1] = system: human lung cancer cell Lu65; test: MTT assay, human lung cancer cell Lu65; conditions: for IC50 of human cancer cells by MTT assay: Lu65, lung cancer, HAP agents particle diameter 0.1 μm or less (Table 1); for Platinum content calculated from IC50 of human cancer cells by MTT assay: Lu65, IC50 converted to platinum concentration (Table 2)
Procedure: as §1, §2

HSC4 = test: MTT assay, human cancer cells HSC4; conditions: for IC50 of human cancer cells by MTT assay: HSC4, oral cancer, HAP agents particle diameter 0.1 μm or less; for Platinum content calculated from IC50 of human cancer cells by MTT assay: HSC4, IC50 converted to platinum concentration
Procedure: as §1, §2

HT1080 = test: MTT assay, human cancer cells HT1080; conditions: for IC50 of human cancer cells by MTT assay: HT1080, fibrosarcoma, HAP agents particle diameter 0.1 μm or less; for Platinum content calculated from IC50 of human cancer cells by MTT assay: HT1080, IC50 converted to platinum concentration
Procedure: as §1, §2

YES5 = test: MTT assay, human cancer cells YES5; conditions: for IC50 of human cancer cells by MTT assay: YES5, esophageal cancer, HAP agents particle diameter 0.1 μm or less; for Platinum content calculated from IC50 of human cancer cells by MTT assay: YES5, IC50 converted to platinum concentration
Procedure: as §1, §2

A431 = test: MTT assay, human cancer cells A431; conditions: for IC50 of human cancer cells by MTT assay: A431, squamous cell cancer, HAP agents particle diameter 0.1 μm or less; for Platinum content calculated from IC50 of human cancer cells by MTT assay: A431, IC50 converted to platinum concentration
Procedure: as §1, §2

Kato-III = test: MTT assay, human cancer cells Kato-III; conditions: for Platinum content calculated from IC50 of human cancer cells by MTT assay: KATO-III, IC50 converted to platinum concentration; for IC50 of human cancer cells by MTT assay: Kato-III, gastric cancer, HAP agents particle diameter 0.1 μm or less
Procedure: as §1, §2

HeLa = test: MTT assay, human cancer cells HeLa; conditions: for Platinum content calculated from IC50 of human cancer cells by MTT assay: IC50 converted to platinum concentration; for IC50 of human cancer cells by MTT assay: cervical cancer, HAP agents particle diameter 0.1 μm or less
Procedure: as §1, §2

KB = test: MTT assay, human cancer cells KB; conditions: for Platinum content calculated from IC50 of human cancer cells by MTT assay: IC50 converted to platinum concentration; for IC50 of human cancer cells by MTT assay: oral cancer, HAP agents particle diameter 0.1 μm or less
Procedure: as §1, §2

| SMILES | IC50 of human cancer cells by MTT assay (YES4) [ppm] | Platinum content calculated from IC50 of human cancer cells by MTT assay (YES4) [ppm] | IC50 of human cancer cells by MTT assay (YES2) [ppm] | Platinum content calculated from IC50 of human cancer cells by MTT assay (YES2) [ppm] | Platinum content calculated from IC50 of human cancer cells by MTT assay (SiHa) [ppm] | IC50 of human cancer cells by MTT assay (SiHa) [ppm] | IC50 of human cancer cells by MTT assay [1] [ppm] | Platinum content calculated from IC50 of human cancer cells by MTT assay [1] [ppm] | IC50 of human cancer cells by MTT assay (HSC4) [ppm] | Platinum content calculated from IC50 of human cancer cells by MTT assay (HSC4) [ppm] | IC50 of human cancer cells by MTT assay (HT1080) [ppm] | Platinum content calculated from IC50 of human cancer cells by MTT assay (HT1080) [ppm] | IC50 of human cancer cells by MTT assay (YES5) [ppm] | Platinum content calculated from IC50 of human cancer cells by MTT assay (YES5) [ppm] | IC50 of human cancer cells by MTT assay (A431) [ppm] | Platinum content calculated from IC50 of human cancer cells by MTT assay (A431) [ppm] | Platinum content calculated from IC50 of human cancer cells by MTT assay (Kato-III) [ppm] | IC50 of human cancer cells by MTT assay (Kato-III) [ppm] | Platinum content calculated from IC50 of human cancer cells by MTT assay (HeLa) [ppm] | IC50 of human cancer cells by MTT assay (HeLa) [ppm] | other results |
| --- | --- | --- | --- | --- | --- | --- | --- | --- | --- | --- | --- | --- | --- | --- | --- | --- | --- | --- | --- | --- | --- |
| [NH2][Pt]([NH2])([Cl])[Cl] [CDDP, cisplatin] | 1.3 | 0.8 | 1.7 | 1.1 | 9.8 | 15.1 | 2.7 | 2.7 | 4.5 | 2.9 | 25.5 | 16.6 | 10.0 | 6.5 | 5.7 | 3.7 | 1.8 | 2.7 | 1.4 | 2.1 | Platinum content calculated from IC50 of human cancer cells by MTT assay (KB): 4.1 ppm; IC50 of human cancer cells by MTT assay (KB): 6.3 ppm |
| [Cl][Pt]([Cl])([Cl])[Cl] [PtCl4, platinum tetrachloride] | 14.6 | 8.5 | 35.8 | 20.7 | 5.0 | 8.7 | 0.9 | 0.9 | 5.7 | 3.3 | 9.6 | 5.6 | 20.1 | 11.6 | 9.5 | 5.5 | 3.4 | 5.8 | 4.0 | 7.0 | Platinum content calculated from IC50 of human cancer cells by MTT assay (KB): 8.7 ppm; IC50 of human cancer cells by MTT assay (KB): 15.0 ppm |
